Data from article PMC11876601 (Molecular Systems Biology, 2025).
Like-named read-outs stand apart in the source and are kept apart here. One block for each compound: values may come before it.

How the values were obtained:
[1] = system: 30 PDAC cell lines; conditions: ref Jaaks et al, 2022; cited from earlier work
[2] = system: AZI2; conditions: AZI2, 4 cell line mix lysate, Kinobeads y, ref Klaeger et al. (2017), cited from earlier work
[3] = system: ABL1; conditions: ABL1, 4 cell line mix lysate, Kinobeads y, ref Klaeger et al. (2017); cited from earlier work
[4] = target: CSNK2B; conditions: 4 cell line mix lysate, Kinobeads y, ref Klaeger et al. (2017), cited from earlier work
[5] = system: TBKBP1; conditions: TBKBP1, 4 cell line mix lysate, Kinobeads y, ref Klaeger et al. (2017), cited from earlier work
[6] = system: EPHB6; set-up: method as in Klaeger et al. (2017); conditions: EPHB6, 4 cell line mix lysate, Kinobeads y, ref Klaeger et al. (2017), cited from earlier work
[7] = target: BCR; conditions: 4 cell line mix lysate, Kinobeads y, ref Klaeger et al. (2017), cited from earlier work
[8] = system: IKBKE; conditions: 4 cell line mix lysate, Kinobeads y, ref Klaeger et al. (2017); cited from earlier work
[9] = system: ADCK1; set-up: method as in Klaeger et al. (2017); conditions: ADCK1, 4 cell line mix lysate, Kinobeads y, ref Klaeger et al. (2017), cited from earlier work
[10] = system: INPPL1; set-up: method as in Klaeger et al. (2017); conditions: INPPL1, 4 cell line mix lysate, Kinobeads y, ref Klaeger et al. (2017), cited from earlier work
[11] = system: WEE1; conditions: WEE1, 4 cell line mix lysate, Kinobeads y, ref Klaeger et al. (2017); cited from earlier work
[12] = system: CSNK2A1;CSNK2A3; conditions: CSNK2A1;CSNK2A3, 4 cell line mix lysate, Kinobeads y, ref Klaeger et al. (2017), cited from earlier work
[13] = target: TANK; conditions: 4 cell line mix lysate, Kinobeads y, ref Klaeger et al. (2017), cited from earlier work
[14] = system: MAP3K4; conditions: cited from earlier work; for Kd: read-out: KDapp
[15] = system: TBK1; conditions: TBK1, 4 cell line mix lysate, Kinobeads y, ref Klaeger et al. (2017); cited from earlier work
[16] = target: GAK; conditions: 4 cell line mix lysate, Kinobeads y, ref Klaeger et al. (2017), cited from earlier work
[17] = target: EIF3J; conditions: 4 cell line mix lysate, Kinobeads y, ref Klaeger et al. (2017), cited from earlier work
[18] = system: NEK3; set-up: method as in Klaeger et al. (2017); conditions: NEK3, 4 cell line mix lysate, Kinobeads y, ref Klaeger et al. (2017), cited from earlier work
[19] = target: ADK; conditions: 4 cell line mix lysate, Kinobeads y, ref Klaeger et al. (2017), cited from earlier work
[20] = system: CSNK2A2; conditions: CSNK2A2, 4 cell line mix lysate, Kinobeads y, ref Klaeger et al. (2017), cited from earlier work
[21] = system: GRB2; set-up: method as in Klaeger et al. (2017); conditions: GRB2, 4 cell line mix lysate, Kinobeads y, ref Klaeger et al. (2017), cited from earlier work
[22] = system: FAMPAC; experiment: cells; set-up: ATPlite luminescence viability of PDAC cell lines, 11-dose single-agent curves, 4-parameter fit; conditions: 72 h, read-out: EC50 [nM]
How it was run: (§1)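 Drug-combination screening used cells plated at 1000 to 5000 per well one day before treatment. Final DMSO was 0.2%. Each plate held untreated negative-control wells and 5 µM staurosporine positive-control wells.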

[23] = system: HuP-T4; experiment: cells; set-up: ATPlite luminescence viability of PDAC cell lines, 11-dose single-agent curves, 4-parameter fit; conditions: Homo sapiens, HuP-T4, 72 h, read-out: EC50 [nM]
How it was run: as §1

[24] = system: Colo-357; experiment: cells; set-up: ATPlite luminescence viability of PDAC cell lines, 11-dose single-agent curves, 4-parameter fit; conditions: Homo sapiens, COLO357, 72 h, read-out: EC50 [nM]
How it was run: as §1

[25] = system: AsPC-1; experiment: cells; set-up: ATPlite luminescence viability of PDAC cell lines, 11-dose single-agent curves, 4-parameter fit; conditions: Homo sapiens, ASPC1, 72 h, read-out: EC50 [nM]
How it was run: as §1

[26] = system: HPDE; experiment: cells; set-up: ATPlite luminescence viability of PDAC cell lines, 11-dose single-agent curves, 4-parameter fit; conditions: HPDE, 72 h, read-out: EC50 [nM]
How it was run: as §1

[27] = system: PaTu-8988-T; experiment: cells; set-up: ATPlite luminescence viability of PDAC cell lines, 11-dose single-agent curves, 4-parameter fit; conditions: Homo sapiens, PaTu 8988t, 72 h, read-out: EC50 [nM]
How it was run: as §1

[28] = system: Dan-G; experiment: cells; set-up: ATPlite luminescence viability of PDAC cell lines, 11-dose single-agent curves, 4-parameter fit; conditions: 72 h, read-out: EC50 [nM]
How it was run: as §1

[29] = system: Suit2-07; experiment: cells; set-up: ATPlite luminescence viability of PDAC cell lines, 11-dose single-agent curves, 4-parameter fit; conditions: 72 h, read-out: EC50 [nM]
How it was run: as §1

[30] = system: Capan-1; experiment: cells; set-up: ATPlite luminescence viability of PDAC cell lines, 11-dose single-agent curves, 4-parameter fit; conditions: Homo sapiens, CAPAN-1, 72 h, read-out: EC50 [nM]
How it was run: as §1

[31] = system: MiaPaCa-2; experiment: cells; set-up: ATPlite luminescence viability of PDAC cell lines, 11-dose single-agent curves, 4-parameter fit; conditions: Homo sapiens, MIA PaCa-2, 72 h, read-out: EC50 [nM]
How it was run: as §1

[32] = system: PSN-1; experiment: cells; set-up: ATPlite luminescence viability of PDAC cell lines, 11-dose single-agent curves, 4-parameter fit; conditions: Homo sapiens, PSN1, 72 h, read-out: EC50 [nM]
How it was run: as §1

[33] = system: 13 PDAC cell lines; experiment: Phenotypic drug combination viability screen (ATPlite, 72 h), cell line panel; assay type: cell-based, human; conditions: of 13 cell lines; Bliss model
Procedure: Cell viability was assessed by measuring ATP levels to indicate metabolic activity.
Afterward, small amounts were transferred to 384-well intermediate plates (Greiner Bio-One GmbH, Germany). […] For drug combination screening, 1000 to 5000 cells were seeded into 384-well plates (CulturPlate™, Perkin Elmer, MA, USA) using a Multidrop™ Combi Reagent Dispenser (Thermo Scientific, MA, USA) in 50 µl medium per well 24 h prior to drug treatment (seeding densities see Appendix Table S1). […] The final DMSO concentration in each well was 0.2%. […] Eight wells per plate without library drug served as negative controls, and sixteen wells per plate containing 5 µM Staurosporine served as positive controls. Control plates not containing any drug were used to correct for incubation effects, and data quality was assessed by calculation of Z-prime of positive and negative controls according to1 Z-prime=1−3SDpos+3SDneg/[…] where SD is the standard deviation. […] Dose–response curves from the experimental and hypothetical data were compared, and shifts in AUC were used to describe combination effects (AUC∆ = AUChypothetical − AUCexperimental). […] Only combinations with R^2 > 0.8 in both conditions were considered in the synergy analysis.

[34] = system: advanced PDAC patients; set-up: method as in Moore et al, 2007; conditions: Erlotinib + GEM, ref Moore et al, 2007; cited from earlier work
[35] = system: HuP-T4; experiment: cells; set-up: Viability of PDAC cell lines, ATPlite luminescence, 11-dose single-agent curve fit; conditions: Homo sapiens, HuP-T4, 72 h, read-out: EC50 [nM]
How it was run: (§2)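 screening used cells plated at 1000 to 5000 per well one day before treatment. Final DMSO was 0.2%. Each plate held untreated negative-control wells and 5 µM staurosporine positive-control wells.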

[36] = system: AsPC-1; experiment: cells; set-up: Viability of PDAC cell lines, ATPlite luminescence, 11-dose single-agent curve fit; conditions: Homo sapiens, ASPC1, 72 h, read-out: EC50 [nM]
How it was run: as §2

[37] = system: PaTu-8988-T; experiment: cells; set-up: Viability of PDAC cell lines, ATPlite luminescence, 11-dose single-agent curve fit; conditions: Homo sapiens, PaTu 8988t, 72 h, read-out: EC50 [nM]
How it was run: as §2

[38] = system: Capan-1; experiment: cells; set-up: Viability of PDAC cell lines, ATPlite luminescence, 11-dose single-agent curve fit; conditions: Homo sapiens, CAPAN-1, 72 h, read-out: EC50 [nM]
How it was run: as §2

[39] = system: MiaPaCa-2; experiment: cells; set-up: Viability of PDAC cell lines, ATPlite luminescence, 11-dose single-agent curve fit; conditions: Homo sapiens, MIA PaCa-2, 72 h, read-out: EC50 [nM]
How it was run: as §2

[40] = system: PSN-1; experiment: cells; set-up: Viability of PDAC cell lines, ATPlite luminescence, 11-dose single-agent curve fit; conditions: Homo sapiens, PSN1, 72 h, read-out: EC50 [nM]
How it was run: as §2

[41] = system: PANC-1; experiment: cells; set-up: Viability of PDAC cell lines, ATPlite luminescence, 11-dose single-agent curve fit; conditions: Homo sapiens, PANC-1, 72 h, read-out: EC50 [nM]
How it was run: as §2

[42] = system: BxPC-3; experiment: cells; set-up: ATPlite luminescence viability of PDAC cell lines, 11-dose single-agent curves, 4-parameter fit; conditions: Homo sapiens, BXPC-3, 72 h, read-out: EC50 [nM]
How it was run: as §1

[43] = MAP3K4, 4 cell line mix lysate, Kinobeads y, ref Klaeger et al. (2017)

SMILES: NC(=O)Nc1cc(-c2cccc(F)c2)sc1C(=O)N[C@H]1CCCNC1 [AZD7762]
synergy with GEM [1]: nearly half of the cell lines

SMILES: C=CCn1c(=O)c2cnc(Nc3ccc(N4CCN(C)CC4)cc3)nc2n1-c1cccc(C(C)(C)O)n1 [Adavosertib (MK-1775)]
pKDapp [2]: 5.91
Kd ([2]; read-out: KDapp): 1230 nM
EC50 [3]: 6340 nM
EC50 [5]: 2180 nM
EC50 [6]: 549 nM
pKDapp [6]: 6.47
Kd ([6]; read-out: KDapp): 337 nM
EC50 [7]: 3990 nM
EC50 [9]: 3050 nM
EC50 [10]: 1470 nM
pKDapp [10]: 6.15
Kd ([10]; read-out: KDapp): 712 nM
EC50 [12]: 627 nM
pKDapp [12]: 6.20
Kd ([12]; read-out: KDapp): 627 nM
EC50 [13]: 2870 nM
EC50 [14, 43]: 77.5 nM
pKDapp [14, 43]: 7.28
Kd [14, 43]: 52 nM
EC50 [16]: 745 nM
Kd ([17]; read-out: KDapp): 500 nM
EC50 [17]: 500 nM
pKDapp [17]: 6.30
EC50 [18]: 980 nM
pKDapp [18]: 6.08
Kd ([18]; read-out: KDapp): 837 nM
Kd ([19]; read-out: KDapp): 12.6 nM
EC50 [19]: 12.6 nM
pKDapp [19]: 7.90
EC50 [20]: 428 nM
EC50 [21]: 2710 nM

EC50 [24]: 135 nM
EC50 [25]: 171 nM
EC50 [31]: 244 nM
SMILES: C=CCn1c(=O)c2cnc(Nc3ccc(N4CCN(C)CC4)cc3)nc2n1-c1cccc(C(C)(C)O)n1 [Adavosertib]
synergy with GEM [1]: to a lesser extent
Kd ([14]; Kinobeads, ref Klaeger et al, 2017a, Reinecke et al, 2023a): 52 nM
EC50 [22]: 268 nM
EC50 [23]: 5570 nM
EC50 [26]: 946 nM
EC50 [27]: 154 nM
EC50 [28]: 147 nM
EC50 [29]: 206 nM
EC50 [30]: 327 nM
EC50 [32]: 464 nM

EC50 [36]: > 10000 nM
EC50 [39]: 4050 nM
EC50 [41]: 36.8 nM
EC50 [24]: 1040 nM
EC50 [42]: 2060 nM
SMILES: C#Cc1cccc(Nc2ncnc3cc(OCCOC)c(OCCOC)cc23)c1 [Erlotinib]
improvement of overall survival over GEM alone [34]: two weeks
EC50 [35]: 8400 nM
EC50 [37]: 5260 nM
EC50 [38]: 2940 nM
EC50 [40]: 5920 nM
EC50 [22]: 3940 nM
EC50 [26]: 552 nM
EC50 [28]: 630 nM
EC50 [29]: > 10000 nM
